Data on 99 molecules can be found in ChEMBL document CHEMBL3507680, “University of Dundee, Gates Library screen for HepG2 cell viability”.

This series in a line: Human HepG2 cell viability assay in 384 well format. It is filed as toxicity, cell-based. Further details: dose 125 nL, time 70.5 hour; cytotoxicity at 70.5 h: concentration not given beside the values. As to conditions: HepG2 cells, read-out: Inhibition.
Take `COc1ccc(C2=CCN(C(=O)C3CCCN(C(N)=O)C3)CC2)cc1` (centres undefined): the cytotoxicity at 70.5 h is -6.51%.

In the case of `CC(C)c1n[nH]c(C2CN(C(=O)c3cccc4cn[nH]c34)CCO2)n1` (centres undefined), the cytotoxicity at 70.5 h turned out to be 3.42%.

Consider `N#CC1(C(=O)N2C[C@H]3CC[C@@H]2CN(Cc2cscn2)C3)CCOCC1`, for which the cytotoxicity at 70.5 h was 15.7%.

For `Cc1cc(C(=O)N2CCCC(c3nc(C)no3)C2)on1` (centres undefined), the cytotoxicity at 70.5 h was -10.6%.

Take `CCS(=O)(=O)N1Cc2[nH]nc(COCc3cccnc3)c2C1`: the cytotoxicity at 70.5 h was -2.23%.

For `c1cc(CN2CCC3(CC2)COC(COCC2CC2)C3)co1` (centres undefined), the cytotoxicity at 70.5 h was -20.3%.

For `CCSCCC(C)N(C)C(=O)c1ccc(C)o1` (centres undefined), the cytotoxicity at 70.5 h was -1.62%.

Regarding `O=C1CCCN1CCCC(=O)N1CCCCC1c1ccc(F)cc1` (centres undefined), the cytotoxicity at 70.5 h turned out to be 2.07%.

Consider `Cn1cc(CN2CCC(F)(F)C3(CCN(c4cccnc4)C3)C2)cn1` (centres undefined), for which the cytotoxicity at 70.5 h is -9.49%.

Take `O=C(c1ccncc1)N1C[C@@H]2OCCN(CCN3CCCC3)[C@@H]2C1`: the cytotoxicity at 70.5 h was -4.2%.

Consider `O=C(c1ccnc(-n2cnnc2)c1)N1CCCC2(CCNC2)C1` (centres undefined), for which the cytotoxicity at 70.5 h is -9.32%.

On to `O=C(NCC(Cc1cccc(F)c1)N1CCCC1=O)c1cnccn1` (centres undefined), for which the cytotoxicity at 70.5 h was determined as 0.835%.

As to `Nc1cc(C(=O)N2CCC3(CC2)Nc2ccccc2NC3=O)ccn1`, the cytotoxicity at 70.5 h came to 19.6%.

For the molecule `Cc1ccc(C2CSCCN2C(=O)c2cc(C(N)=O)cs2)o1` (centres undefined), the cytotoxicity at 70.5 h was -8.27%.

With `O=C1CC(c2ccccc2)c2c(c(C(=O)O)cn2-c2ccccc2)N1` (centres undefined), the cytotoxicity at 70.5 h is -10.7%.

Consider `COc1ccc(-n2ccc(CNCc3ccc(OC)c(O)c3)n2)cc1`, for which the cytotoxicity at 70.5 h amounted to 2.11%.

On to `O=C(NC1CC1)c1ccccc1NCc1cn2cccnc2n1`, for which the cytotoxicity at 70.5 h was -5.34%.

For the molecule `Cc1nc(C)n(CC2CCCN2Cc2nc(-c3ccsc3)no2)n1` (centres undefined), the cytotoxicity at 70.5 h is 12.8%.

Regarding `OC(CN(Cc1ccccc1)Cc1cccnc1)c1cccs1` (centres undefined), the cytotoxicity at 70.5 h is 10%.

`O=C(c1cccnc1)N1CCC2(CC1)COC(COc1ccccn1)C2` (centres undefined): the cytotoxicity at 70.5 h was -11.7%.

Consider `CN(C)C(=O)CN1CCCc2c(F)cc(Br)cc21`, for which the cytotoxicity at 70.5 h is -2.61%.

For `CC(C)CCC(=O)N1CCC(c2nnc(CN(C)CCO)n2C)CC1`, the cytotoxicity at 70.5 h is -2.45%.

As to `CCc1cnc(N2CC[C@@H]3CN(CCC(C)C)S(=O)(=O)[C@@H]3CC2)nc1`, the cytotoxicity at 70.5 h is -4.3%.

Regarding `CCOc1ccccc1NC(C)C(=O)N(C)Cc1cccc(F)c1` (centres undefined), the cytotoxicity at 70.5 h was 6.19%.

Take `Cc1cccc(N2CCC3(CCCN3Cc3cn(C)nc3C)CC2)n1`: the cytotoxicity at 70.5 h was -9.08%.

As for `CCCS(=O)(=O)NCC(C)(O)c1ccsc1` (centres undefined), the cytotoxicity at 70.5 h was -4.32%.

For `Cn1ncc(NC(=O)Cn2cc(-c3ccc(F)cn3)cn2)n1`, the cytotoxicity at 70.5 h was -10.2%.

As for `CC(OCc1ccccc1)C(=O)NC1CCN(CC(N)=O)CC1` (centres undefined), the cytotoxicity at 70.5 h was -6.55%.

In the case of `COCCCNC(=O)CN(C)Cc1ccc(F)cc1Cl`, the cytotoxicity at 70.5 h stood at 9.16%.

On to `COc1ccc(CN2CC(n3cccn3)C2)cc1F`, for which the cytotoxicity at 70.5 h was -2.24%.

With `Cn1cc(CNC2CCC(O)CC2)c(-c2cc3ccccc3o2)n1` (centres undefined), the cytotoxicity at 70.5 h was -6.96%.

Consider `CC(=O)N1CCc2c(nc(-c3ccccn3)nc2N(C)CC(O)CO)C1` (centres undefined), for which the cytotoxicity at 70.5 h is -9.73%.

Take `CSCC(=O)N1CCCC(n2ccnc2C(C)C)C1` (centres undefined): the cytotoxicity at 70.5 h was -7.04%.

Consider `Cc1cc(C)nc(C2CCCN2S(=O)(=O)N2CCOCC2)n1` (centres undefined), for which the cytotoxicity at 70.5 h was -4.98%.

For `COc1cccc(S(=O)(=O)N2CCC(O)(CN(C)C)C2)c1` (centres undefined), the cytotoxicity at 70.5 h was -19.7%.

In the case of `Cc1cc(CN2CCc3nn(C)c(=O)cc3C2)on1`, the cytotoxicity at 70.5 h stood at 3.7%.

As to `C1CC(c2noc(C3CC3)n2)N(Cc2nnc(C3CC3)o2)C1` (centres undefined), the cytotoxicity at 70.5 h is -7.72%.

In the case of `CNC(=O)c1ccc(CN(C(=O)c2scnc2C)C2CC2)cc1`, the cytotoxicity at 70.5 h worked out at 29.9%.

Take `CCN(C)C[C@@H]1CN(S(=O)(=O)c2ccc(C#N)cc2)C[C@@H]1CO`: the cytotoxicity at 70.5 h was -1.6%.

Turning to `COCC1CC2(CCN(C(=O)c3ccc(F)c(Cl)c3)CC2)CO1` (centres undefined), the cytotoxicity at 70.5 h came out at 13%.

With `Cc1cc(C(=O)NCc2ccc(N3CCCC(C(N)=O)C3)cc2)no1` (centres undefined), the cytotoxicity at 70.5 h was -12.6%.

Consider `CCN(Cc1ccncc1)c1nc(C)nc2oc(C)nc12`, for which the cytotoxicity at 70.5 h was -5.52%.

For `Cc1noc(C)c1CC(=O)N1CC[C@@](C)(O)[C@H](Oc2ccccc2)C1`, the cytotoxicity at 70.5 h was -2.99%.

As for `CC(C)CCCNC(=O)Nc1ccc(Cl)c(C(N)=O)c1`, the cytotoxicity at 70.5 h was 1.37%.

Take `Cc1ccc(CN2CCOCC2)cc1NCc1ccsc1`: the cytotoxicity at 70.5 h is -13.9%.

As for `CC1CN(C)CCN1C(=O)COc1cccc(Oc2ccccn2)c1` (centres undefined), the cytotoxicity at 70.5 h came out at 18.2%.

In the case of `Cc1cc(CN2CC[C@H]3OCC[C@@]3(C(=O)N3CCOCC3)C2)no1`, the cytotoxicity at 70.5 h is -5%.

As to `CC(C)NC(=O)N1CCC[C@H]1C(=O)NCCCc1cnn(C)c1`, the cytotoxicity at 70.5 h was -4.04%.

As for `CC(C)Cc1nc(OCC(N)=O)c(C#N)c2c1CCC2`, the cytotoxicity at 70.5 h worked out at 14.5%.

Turning to `COCC(=O)N1CCc2[nH]c(=O)ccc2C1`, the cytotoxicity at 70.5 h is -8.99%.

In the case of `O=C(NCC1CC1)c1cnc(-c2ccccc2)nc1`, the cytotoxicity at 70.5 h was -5.81%.

For `Cc1ccc(CNC(=O)NC2CCCc3c2cnn3CCO)cn1` (centres undefined), the cytotoxicity at 70.5 h was -11.1%.

On to `CCNC(=O)CCC(=O)NC1(c2cccc(C(F)(F)F)c2)CCC1`, for which the cytotoxicity at 70.5 h worked out at 16.4%.

`COc1ccc(C2CCCN2C(=O)CCNc2ncccn2)cc1` (centres undefined): the cytotoxicity at 70.5 h was -5.82%.

In the case of `CCCN1CCc2nc(SCc3ccc(F)cc3)[nH]c(=O)c2C1`, the cytotoxicity at 70.5 h was -3.74%.

`CCN(CC)C(=O)Cn1ccc2cc(NC(=O)C3CCCCC3)ccc21`: the cytotoxicity at 70.5 h was determined as 14.5%.

Consider `O=C1CC2(CCN(CCCF)CC2)CN1Cc1cc(F)cc(F)c1`, for which the cytotoxicity at 70.5 h stood at 8.23%.

With `Cc1ccc(CN2CCC3(CC2)NC(=O)CC3c2ccccc2)s1` (centres undefined), the cytotoxicity at 70.5 h is -6.55%.

Turning to `CCOCCn1nc(C)cc1C(=O)N1CC(C)(C)[C@@](C)(O)C1`, the cytotoxicity at 70.5 h is -2.57%.

On to `O[C@H]1COCCN(Cc2cccc(C(F)(F)F)c2)C1`, for which the cytotoxicity at 70.5 h was -9.83%.

Consider `CC(c1cc(F)ccc1F)N(C)C(=O)NCc1ccnc(N(C)C)c1` (centres undefined), for which the cytotoxicity at 70.5 h was 2.05%.

In the case of `Cc1cc2nc(-c3ccccc3)cc(NCC3CCS(=O)(=O)C3)n2n1` (centres undefined), the cytotoxicity at 70.5 h stood at 8.05%.

As for `CC(Cn1cccn1)NC(=O)NCCc1ccc(Cl)s1` (centres undefined), the cytotoxicity at 70.5 h was -5.79%.

As for `N#Cc1cccc(C(=O)N2CCCC(O)(CO)CC2)c1` (centres undefined), the cytotoxicity at 70.5 h was -4.07%.

In the case of `CN(Cc1cnn(C)c1)C(=O)NCc1nnc2n1CCC2`, the cytotoxicity at 70.5 h was -25.4%.

For `CCc1c(C(=O)O)nnn1-c1cccc(C)c1C`, the cytotoxicity at 70.5 h was -7.95%.

On to `O=C(Nc1cccn(CC(F)(F)F)c1=O)c1ccncc1F`, for which the cytotoxicity at 70.5 h is -11.6%.

Regarding `O=C(O)C1(Oc2cccc(F)c2)CCN(C2CCOCC2)CC1`, the cytotoxicity at 70.5 h was -6.65%.

As to `Cn1nnc2c1CCN(C(=O)C1CC1)C2COCCN1CCCC1` (centres undefined), the cytotoxicity at 70.5 h was -3.87%.

For the molecule `COCCc1noc(CNC2CCc3nc(C(C)C)nn3C2)n1` (centres undefined), the cytotoxicity at 70.5 h was -5%.

Consider `Cc1ccc(C(=O)NCCC2CCN(C)CC2)cc1N(C)S(C)(=O)=O`, for which the cytotoxicity at 70.5 h was determined as 24%.

Consider `CC(NC(=O)CN1CCN(Cc2ccc(Br)s2)CC1)c1ccccc1` (centres undefined), for which the cytotoxicity at 70.5 h was 25.3%.

Consider `O=C(CC(SC1CCCCC1)C(=O)O)c1ccc(Br)cc1` (centres undefined), for which the cytotoxicity at 70.5 h turned out to be 0.38%.

With `c1ccc2oc(C3CCN(Cc4ncon4)CC3)nc2c1`, the cytotoxicity at 70.5 h is -0.981%.

On to `NC(=O)CN(CC(=O)NCc1cccc(Cl)c1)C1CCCC1`, for which the cytotoxicity at 70.5 h is -11.2%.

Consider `Cc1ccc2cc(C3(O)CCN(C(=O)CSC(C)C)CC3)ccc2n1`, for which the cytotoxicity at 70.5 h is -6%.

As to `CC[S+](CC)[c-]1c(=O)[nH]c(=O)n(Cc2ccc(F)cc2)c1=O`, the cytotoxicity at 70.5 h was found to be 3.21%.

Consider `O=C(c1cnc(-c2ccccn2)s1)N1CCCC1Cn1cccn1` (centres undefined), for which the cytotoxicity at 70.5 h was -8.6%.

`CSC1=Nc2c(cnn2-c2ccccc2)C2=NCCCN12`: the cytotoxicity at 70.5 h was -8.98%.

In the case of `O=c1cc(Cn2ccnc2)nc2n1CCCN(Cc1ccsc1)C2`, the cytotoxicity at 70.5 h was -19.5%.

For `CN(Cc1ccc2c(c1)OCO2)C(=O)c1ccc(C2CCCO2)s1` (centres undefined), the cytotoxicity at 70.5 h was -6.85%.

In the case of `CN(Cc1ccco1)C1CCC12CCN(C(=O)c1ccncc1)CC2` (centres undefined), the cytotoxicity at 70.5 h was -5.53%.

Consider `N#Cc1ccc(CN2CC3(CCCCN3c3cccnc3)CC2=O)cc1` (centres undefined), for which the cytotoxicity at 70.5 h came to 1%.

Take `Clc1cc(CN2CCCCC2Cn2cncn2)c2ncccc2c1` (centres undefined): the cytotoxicity at 70.5 h was -9.86%.

Regarding `COC(=O)C(CNC(=O)Nc1cn[nH]c1)Cc1cccc(C)c1` (centres undefined), the cytotoxicity at 70.5 h is -0.383%.

In the case of `COc1ccc(N2CCN(C(=O)COc3nccc(C)n3)CC2)cc1`, the cytotoxicity at 70.5 h was -3.87%.

For the molecule `Cc1cc(C)nc(Nc2cccc(C3CCCN(C(C)C)C3)n2)n1` (centres undefined), the cytotoxicity at 70.5 h was -6.28%.

For the molecule `O=C(c1cccc(S(=O)(=O)NCCCn2cccn2)c1)N1CCOCC1`, the cytotoxicity at 70.5 h was -1.43%.

`O=S(=O)(c1cc(F)ccc1N1CC(n2cccn2)C1)C(F)(F)F`: the cytotoxicity at 70.5 h was -0.145%.

Consider `CN1C[C@@H]2CC[C@H](CC1=O)N2C(=O)c1ccc(-c2ccccc2)[nH]c1=O`, for which the cytotoxicity at 70.5 h was -8.24%.

Turning to `OCc1csc(N2CCCC(CO)(Cc3cccc(Cl)c3)C2)n1` (centres undefined), the cytotoxicity at 70.5 h amounted to 12.4%.

With `CC(C)CNC(=O)c1ccc2c(c1)nc1n2CCN(Cc2ccco2)C1`, the cytotoxicity at 70.5 h was -0.527%.

Consider `O=C(NCC1COCc2c(-c3ccncc3)nnn2C1)[C@H]1CCCO1` (some centres undefined), for which the cytotoxicity at 70.5 h was -0.723%.

For the molecule `Cc1nccn1CC1CCN(C(=O)Cc2ccccc2)CC1`, the cytotoxicity at 70.5 h turned out to be 24.1%.

As to `O=C(O)CCc1cc2n(n1)CCN(Cc1cnc(N3CCCC3)nc1)C2`, the cytotoxicity at 70.5 h was -2.38%.

As for `CN(C)c1ncc2c(O)nc(C3CCNCC3)cc2n1`, the cytotoxicity at 70.5 h is -6.95%.

On to `CCS(=O)(=O)N1CCc2c(COC)cncc2C1`, for which the cytotoxicity at 70.5 h was determined as 17.2%.

In the case of `O=C(CN1CCCC(Cn2cncn2)C1)NCc1ccccc1F` (centres undefined), the cytotoxicity at 70.5 h was -4.63%.

For the molecule `C[C@@H]1CN(C(=O)c2ccc(=O)[nH]c2)CC[C@@]1(O)C1CCOCC1`, the cytotoxicity at 70.5 h is 1.36%.
